Test results published in patent publication US8192962B2, “Processes for detecting toxic substances” (Daikin Industries, Ltd., priority 2001, dated 2012).

Tested on: Unknown protein yeast genes
Test: DNA chip mRNA expression in yeast, unknown protein yeast genes (Table 1)
Assay type: cell-based, Saccharomyces cerevisiae S288C
Summary of the method: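 Measured as treated-to-untreated fluorescence ratio on a full-genome yeast DNA chip. Cells (S288C, YPD, 25° C.) were exposed in log phase for two hours to one chemical, dosed to curb growth without killing.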

Measured: The level of expressed mRNA in the presence of chemical substance/The level of expressed mRNA in the absence of chemical substance

CCCCCCCCCCCCc1ccc(S(=O)(=O)[O-])cc1.[Na+] [(17), sodium dodecylbenzosulfonate]
1.8: yeast gene YDL204W, incubated two hours with chemical substance | yeast gene YMR090W | yeast gene YNL156C, incubated two hours with chemical substance
1.5: yeast gene YDR330W, incubated two hours with chemical substance | yeast gene YDR411C, incubated two hours with chemical substance | yeast gene YJR008W, incubated two hours with chemical substance | yeast gene YLR152C, incubated two hours with chemical substance | yeast gene YOL047C, incubated two hours with chemical substance | yeast gene YOR197W, incubated two hours with chemical substance
3.6: yeast gene YJL171C, incubated two hours with chemical substance
2.5: yeast gene YJL152W, incubated two hours with chemical substance
2.4: yeast gene YMR102C, incubated two hours with chemical substance
1.0: yeast gene YER079W, incubated two hours with chemical substance | yeast gene YFL006W, incubated two hours with chemical substance | yeast gene YGR101W, incubated two hours with chemical substance | yeast gene YGR154C, incubated two hours with chemical substance | yeast gene YKL071W | yeast gene YLR194C, incubated two hours with chemical substance | yeast gene YLR387C, incubated two hours with chemical substance | yeast gene YLR460C | yeast gene YMR067C, incubated two hours with chemical substance | yeast gene YMR095C, incubated two hours with chemical substance | yeast gene YNL234W, incubated two hours with chemical substance | yeast gene YNR068C, incubated two hours with chemical substance | yeast gene YPR023C, incubated two hours with chemical substance
0.6: yeast gene YJL082W, incubated two hours with chemical substance
2.2: yeast gene YER035W, incubated two hours with chemical substance | yeast gene YGL053W, incubated two hours with chemical substance
1.1: yeast gene YGL047W, incubated two hours with chemical substance | yeast gene YHR199C, incubated two hours with chemical substance | yeast gene YML117W, incubated two hours with chemical substance | yeast gene YNL074C, incubated two hours with chemical substance | yeast gene YOL036W, incubated two hours with chemical substance | yeast gene YOL131W, incubated two hours with chemical substance | yeast gene YPL222W, incubated two hours with chemical substance
1.9: yeast gene YFL010C, incubated two hours with chemical substance | yeast gene YJL161W, incubated two hours with chemical substance
2.1: yeast gene YMR295C, incubated two hours with chemical substance | yeast gene YPL087W, incubated two hours with chemical substance
1.6: yeast gene YDL072C, incubated two hours with chemical substance | yeast gene YER158C, incubated two hours with chemical substance | yeast gene YKR091W, incubated two hours with chemical substance | yeast gene YLR054C, incubated two hours with chemical substance | yeast gene YLR350W, incubated two hours with chemical substance | yeast gene YNL115C, incubated two hours with chemical substance | yeast gene YOL082W, incubated two hours with chemical substance
1.7: yeast gene YFL032W, incubated two hours with chemical substance | yeast gene YIL087C, incubated two hours with chemical substance | yeast gene YNL092W, incubated two hours with chemical substance | yeast gene YNL305C, incubated two hours with chemical substance | yeast gene YOL032W, incubated two hours with chemical substance | yeast gene YOR019W, incubated two hours with chemical substance
2.7: yeast gene YGL121C | yeast gene YMR009W, incubated two hours with chemical substance | yeast gene YOL150C
1.2: yeast gene YAL053W, incubated two hours with chemical substance | yeast gene YER163C, incubated two hours with chemical substance | yeast gene YGL199C, incubated two hours with chemical substance | yeast gene YIL023C, incubated two hours with chemical substance | yeast gene YLR324W, incubated two hours with chemical substance | yeast gene YMR191W, incubated two hours with chemical substance | yeast gene YOL162W, incubated two hours with chemical substance
0.7: yeast gene YEL001C, incubated two hours with chemical substance
5.0: yeast gene YHR138C, incubated two hours with chemical substance
0.8: yeast gene YER106W, incubated two hours with chemical substance | yeast gene YIL041W, incubated two hours with chemical substance
6.9: yeast gene YMR316W, incubated two hours with chemical substance
1.3: yeast gene YBL048W | yeast gene YDR511W, incubated two hours with chemical substance | yeast gene YGL037C, incubated two hours with chemical substance | yeast gene YGR130C, incubated two hours with chemical substance | yeast gene YGR221C, incubated two hours with chemical substance | yeast gene YLR149C, incubated two hours with chemical substance | yeast gene YMR107W, incubated two hours with chemical substance | yeast gene YOL071W, incubated two hours with chemical substance | yeast gene YOL117W, incubated two hours with chemical substance | yeast gene YPR151C, incubated two hours with chemical substance
0.9: yeast gene YBL107C | yeast gene YDL222C, incubated two hours with chemical substance | yeast gene YDR545W, incubated two hours with chemical substance | yeast gene YER175C, incubated two hours with chemical substance | yeast gene YFL024C | yeast gene YGR110W | yeast gene YJR054W, incubated two hours with chemical substance | yeast gene YKL086W, incubated two hours with chemical substance | yeast gene YKL153W, incubated two hours with chemical substance | yeast gene YNL281W, incubated two hours with chemical substance
1.4: yeast gene YER004W, incubated two hours with chemical substance | yeast gene YJL057C, incubated two hours with chemical substance | yeast gene YJL066C, incubated two hours with chemical substance | yeast gene YKL151C, incubated two hours with chemical substance | yeast gene YKL195W, incubated two hours with chemical substance | yeast gene YMR097C, incubated two hours with chemical substance | yeast gene YMR180C, incubated two hours with chemical substance | yeast gene YMR184W, incubated two hours with chemical substance | yeast gene YOL083W, incubated two hours with chemical substance | yeast gene YPL196W, incubated two hours with chemical substance | yeast gene YPL206C, incubated two hours with chemical substance
3.1: yeast gene YNL044W, incubated two hours with chemical substance
3.5: yeast gene YJL151C, incubated two hours with chemical substance
